Marks after values point to notes of the source that are not given here.
Legend:
[1] = tested on: steady-state neuromuscular block induced by pancuronium bromide (Pan); experiment: Reversal of neuromuscular blockade in vivo, anaesthetized guinea pig, pancuronium; conditions: Pan infusion, 85–90% block, anaesthetized guinea pigs, i.v. reversal agent; mean
Protocol: (§1) Male Dunkin-Hartley guinea pigs (bodyweight: 600–900 g) were anaesthetized by i.p. administration of 10 mg/kg pentobarbitone and 1000 mg/kg urethane. After tracheotomy, the animals were artificially ventilated using a Harvard small animal ventilator. A catheter was placed into the carotid artery for continuous monitoring of arterial blood pressure and the taking of blood samples for blood gas analysis. Heart rate was derived from the blood pressure signal. The sciatic nerve was stimulated (rectangular pulses of 0.5 ms duration at 10 s (0.1 Hz) intervals at a supramaximal voltage, using a Grass S88 Stimulator) and the force of M. gastrocnemius contractions was measured using a Grass FT03 force-displacement transducer. Contractions, blood pressure and heart rate were recorded on a multichannel Grass 7D recorder. Catheters were placed in both jugular veins. One catheter was used for the continuous infusion of a neuromuscular blocking agent. The infusion rate of the neuromuscular blocking agent was increased until a steady-state block of 85–90% was obtained. The other catheter was used for administration of increasing doses of the reversal agent. During continuous infusion of the neuromuscular blocking agent, single doses of increasing concentration of reversal agent were given. At the end of the experiment, the measured force of muscle contractions was plotted against the concentration of reversal agent, and using regression analysis techniques, the 50% reversal concentration was calculated.

[2] = tested on: steady-state neuromuscular block induced by atracurium besilate (Atr); experiment: Reversal of neuromuscular blockade in vivo, anaesthetized guinea pig, atracurium; conditions: Atr infusion, 85–90% block, anaesthetized guinea pigs, i.v. reversal agent; mean
Protocol: as §1

[3] = tested on: steady-state neuromuscular block induced by cis-atracurium (Cis-Atr); experiment: Reversal of neuromuscular blockade in vivo, anaesthetized guinea pig, cis-atracurium; conditions: Cis-Atr infusion, 85–90% block, anaesthetized guinea pigs, i.v. reversal agent; mean
Protocol: as §1

[4] = tested on: steady-state neuromuscular block induced by rocuronium bromide (Roc); experiment: Reversal of neuromuscular blockade in vivo, anaesthetized guinea pig, rocuronium; conditions: Roc infusion, 85–90% block, anaesthetized guinea pigs, i.v. reversal agent; mean
Protocol: as §1
Reversal of neuromuscular block in vivo, induced by rocuronium bromide, was carried out as described in Example 5.

[5] = tested on: steady-state neuromuscular block induced by vecuronium bromide (Vec); experiment: Reversal of neuromuscular blockade in vivo, anaesthetized guinea pig, vecuronium; conditions: Vec infusion, 85–90% block, anaesthetized guinea pigs, i.v. reversal agent; mean
Protocol: as §1

[6] = tested on: neuromuscular block induced by rocuronium in isolated mouse hemidiaphragm; experiment: Reversal of neuromuscular block in vitro: isolated mouse hemidiaphragm preparation; conditions: for Mouse hemidiaphragm: maximum reversal (%) / concentration of chemical chelator at maximum reversal: 3.1 μM rocuronium; for concentration of chemical chelator at maximum reversal: mouse hemidiaphragm; for Reversal of the neuromuscular blocking action of rocuronium (in words): rocuronium-induced block
Protocol: Hemidiaphragms, with phrenic nerves attached, were removed from euthanized male mice (Institute of Cancer Research; bodyweight: 20–60 g). The preparations were mounted on a tissue holder and placed in a tissue bath filled with a modified Krebs-Henseleit solution (composition: 118 mM NaCl, 30 mM NaHCO3, 5 mM KCl, 1 mM KH2PO4, 1 mM MgSO4, 30 mM glucose and 2.5 mM CaCl2) at 37° C. and bubbled with 95% oxygen and 5% carbondioxide. One end of the preparation was connected with a siliconized silk suture to a Grass FT03 force-displacement transducer. An initial force of 10 mN was applied. The phrenic nerve was placed on a bipolar platinum electrode and was stimulated with rectangular pulses of 0.2 ms duration at 20 s (0.05 Hz) intervals at a supramaximal voltage, using a Grass S88 Stimulator. Contractions were recorded on a four channel Grass 79D recorder.
Increasing amounts of reversal agent were then administered into the bath at intervals of 10 min. The % maximum reversal was established. At the end of the experiment, the measured muscle contractions force was plotted against the concentration of reversal agent, and using regression analysis techniques, the 50% reversal concentration was calculated.
After induction of neuromuscular block by rocuronium, the % maximum reversal produced by the addition of a number of γ-cyclodextrin derivatives (compounds 11–16), a cyclic octasaccharide comprising 4 rhamnosyl-mannopyranosyl units (compound 24), or a number of paracyclophane derivatives (compounds 17–21 and 23) are presented in Table II.
Reversal of neuromuscular block in vitro was carried out using the mouse hemidiaphragm preparation as described in Example 6.

[7] = tested on: steady-state neuromuscular block induced by mivacurium chloride (Miv); experiment: Reversal of neuromuscular blockade in vivo, anaesthetized guinea pig, mivacurium; conditions: Miv infusion, 85–90% block, anaesthetized guinea pigs, i.v. reversal agent; mean
Protocol: as §1

[8] = tested on: steady-state neuromuscular block induced by rapacuronium bromide (Rap; Org 9487); experiment: Reversal of neuromuscular blockade in vivo, anaesthetized guinea pig, rapacuronium; conditions: Rap infusion, 85–90% block, anaesthetized guinea pigs, i.v. reversal agent; mean
Protocol: as §1

[9] = tested on: steady-state neuromuscular block induced by tubocurarine chloride (T-C); experiment: Reversal of neuromuscular blockade in vivo, anaesthetized guinea pig, tubocurarine; conditions: T-C infusion, 85–90% block, anaesthetized guinea pigs, i.v. reversal agent; mean
Protocol: as §1

[10] = tested on: steady-state neuromuscular block induced by suxamethonium chloride (Sux; succinylcholine); experiment: Reversal of neuromuscular blockade in vivo, anaesthetized guinea pig, suxamethonium; conditions: Sux infusion, 85–90% block, anaesthetized guinea pigs, i.v. reversal agent; mean
Protocol: as §1

[11] = Complexation of rocuronium bromide by chemical chelators (1H NMR, 303 K); format: binding; conditions: NMR spectroscopy at 303 K, D2O, curve fitting of proton chemical shift changes
Protocol: All the ^1H spectra (303 K) were recorded at 400.13 MHz with 128 scans, sw=12 ppm, TD=32 k and zero filled to 64 k real points in processing. All experiments were measured at 303K.
Determination of Stoichiometry
Stock solutions of rocuronium bromide and γ-cyclodextrin (15) were prepared, both with a concentration of 6.02 mM. From these, sixteen solutions were prepared (with the mole % of rocuronium ranging from 0-100) by taking aliquots of 0–800 μl of the rocuronium bromide solution. Aliquots of the γ-cyclodextrin solution, 800–0 μl were added to make the solution a total volume of 800 μl and 100 mole % (i.e. 6.02 mM of [rocuronium bromide+γ-cyclodextrin]). ^1H-NMR spectra were recorded as described above.
If the chemical shift change of H9α in rocuronium bromide is defined as Δδ then a plot of [Δδ*(mole % rocuronium bromide)] vs. [mole % rocuronium bromide] gives a so called Job Plot by the method of continuous variation (Connors K. A.: Binding constants, The measurement of Molecular Complex Stability; Wiley-Interscience; New York, 1987, pp 24–28). The maximum in this plot is indicative for the stoichiometry of the complex.
Determination of the Association Constants
A stock solution of rocuronium bromide: 0.821 mM in D2O was prepared. […]
^1H NMR spectra were recorded as descibed above. […]

2-hydroxypropyl-γ-CD (DS = 4) [Compound 16]
Dose (ED50) producing 50% reversal of steady-state neuromuscular block [1]: 440 (3) μmol.kg^−1
Dose (ED50) producing 50% reversal of steady-state neuromuscular block [2]: 828 (2) μmol.kg^−1
Dose (ED50) producing 50% reversal of steady-state neuromuscular block [3]: 878 (2) μmol.kg^−1
Dose (ED50) producing 50% reversal of steady-state neuromuscular block [4]: 12 (3) μmol.kg^−1
Dose (ED50) producing 50% reversal of steady-state neuromuscular block [5]: 123 (3) μmol.kg^−1
Mouse hemidiaphragm: maximum reversal (%) [6]: 71%
concentration of chemical chelator at maximum reversal [6]: 360 µM
Dose (ED50) producing 50% reversal of steady-state neuromuscular block [7]: 1674 (2) μmol.kg^−1
Dose (ED50) producing 50% reversal of steady-state neuromuscular block [8]: 134 (3) μmol.kg^−1
Dose (ED50) producing 50% reversal of steady-state neuromuscular block [9]: 909 (2) μmol.kg^−1
Dose (ED50) producing 50% reversal of steady-state neuromuscular block [10]: 1340 (2) μmol.kg^−1

OC[C@H]1O[C@@H]2O[C@H]3[C@H](O)[C@@H](O)[C@@H](O[C@H]4[C@H](O)[C@@H](O)[C@@H](O[C@H]5[C@H](O)[C@@H](O)[C@@H](O[C@H]6[C@H](O)[C@@H](O)[C@@H](O[C@H]7[C@H](O)[C@@H](O)[C@@H](O[C@H]8[C@H](O)[C@@H](O)[C@@H](O[C@H]1[C@H](O)[C@H]2O)O[C@@H]8CO)O[C@@H]7CO)O[C@@H]6CO)O[C@@H]5CO)O[C@@H]4CO)O[C@@H]3CO [Compound 9, β-cyclodextrin]
Dose (ED50) producing 50% reversal of steady-state neuromuscular block [1]: 1050 (2) μmol.kg^−1
Dose (ED50) producing 50% reversal of steady-state neuromuscular block [4]: 20 (3) μmol.kg^−1
Association constant (Ka, M^−1) of 1:1 complex of rocuronium bromide and cyclic host compound [11]: 3,100–3,900* M^−1
Dose (ED50) producing 50% reversal of steady-state neuromuscular block [5]: 636 (1) μmol.kg^−1
Dose (ED50) producing 50% reversal of steady-state neuromuscular block [8]: 358 (3) μmol.kg^−1

OC[C@H]1O[C@@H]2O[C@H]3[C@H](O)[C@@H](O)[C@@H](O[C@H]4[C@H](O)[C@@H](O)[C@@H](O[C@H]5[C@H](O)[C@@H](O)[C@@H](O[C@H]6[C@H](O)[C@@H](O)[C@@H](O[C@H]7[C@H](O)[C@@H](O)[C@@H](O[C@H]8[C@H](O)[C@@H](O)[C@@H](O[C@H]9[C@H](O)[C@@H](O)[C@@H](O[C@H]1[C@H](O)[C@H]2O)O[C@@H]9CO)O[C@@H]8CO)O[C@@H]7CO)O[C@@H]6CO)O[C@@H]5CO)O[C@@H]4CO)O[C@@H]3CO [Compound 15, γ-cyclodextrin]
Dose (ED50) producing 50% reversal of steady-state neuromuscular block [1]: 186 (4) μmol.kg^−1
Dose (ED50) producing 50% reversal of steady-state neuromuscular block [2]: 2793 (4) μmol.kg^−1
Dose (ED50) producing 50% reversal of steady-state neuromuscular block [3]: 1710 (2) μmol.kg^−1
Dose (ED50) producing 50% reversal of steady-state neuromuscular block [4]: 4 (3) μmol.kg^−1
Association constant (Ka, M^−1) of 1:1 complex of rocuronium bromide and cyclic host compound [11]: 10,000–20,400# M^−1
Dose (ED50) producing 50% reversal of steady-state neuromuscular block [5]: 75 (4) μmol.kg^−1
Mouse hemidiaphragm: maximum reversal (%) [6]: 94%
concentration of chemical chelator at maximum reversal [6]: 144 µM
Reversal of the neuromuscular blocking action of rocuronium (in words) [6]: efficiently blocked
Dose (ED50) producing 50% reversal of steady-state neuromuscular block [7]: 1690 (2) μmol.kg^−1
Dose (ED50) producing 50% reversal of steady-state neuromuscular block [8]: 57 (3) μmol.kg^−1
Dose (ED50) producing 50% reversal of steady-state neuromuscular block [9]: 630 (2) μmol.kg^−1
Dose (ED50) producing 50% reversal of steady-state neuromuscular block [10]: 1189 (2) μmol.kg^−1

carboxyethyl-γ-CD (DS = 3.8) [Compound 14]
Dose (ED50) producing 50% reversal of steady-state neuromuscular block [1]: 141 (3) μmol.kg^−1
Dose (ED50) producing 50% reversal of steady-state neuromuscular block [2]: 421 (2) μmol.kg^−1
Dose (ED50) producing 50% reversal of steady-state neuromuscular block [3]: 1558 (3) μmol.kg^−1
Dose (ED50) producing 50% reversal of steady-state neuromuscular block [4]: 7 (3) μmol.kg^−1
Dose (ED50) producing 50% reversal of steady-state neuromuscular block [5]: 25 (3) μmol.kg^−1
Mouse hemidiaphragm: maximum reversal (%) [6]: 87%
concentration of chemical chelator at maximum reversal [6]: 144 µM
Reversal of the neuromuscular blocking action of rocuronium (in words) [6]: efficiently blocked
Dose (ED50) producing 50% reversal of steady-state neuromuscular block [7]: 399 (2) μmol.kg^−1
Dose (ED50) producing 50% reversal of steady-state neuromuscular block [8]: 43 (3) μmol.kg^−1
Dose (ED50) producing 50% reversal of steady-state neuromuscular block [9]: 294 (2) μmol.kg^−1
Dose (ED50) producing 50% reversal of steady-state neuromuscular block [10]: 1294 (2) μmol.kg^−1

carboxymethyl-γ-CD (DS = 3.2) [Compound 13]
Dose (ED50) producing 50% reversal of steady-state neuromuscular block [1]: 641 (4) μmol.kg^−1
Dose (ED50) producing 50% reversal of steady-state neuromuscular block [2]: 990 (2) μmol.kg^−1
Dose (ED50) producing 50% reversal of steady-state neuromuscular block [3]: 893 (2) μmol.kg^−1
Dose (ED50) producing 50% reversal of steady-state neuromuscular block [4]: 25 (4) μmol.kg^−1
Dose (ED50) producing 50% reversal of steady-state neuromuscular block [5]: 30 (3) μmol.kg^−1
Mouse hemidiaphragm: maximum reversal (%) [6]: 88%
concentration of chemical chelator at maximum reversal [6]: 180 µM
Reversal of the neuromuscular blocking action of rocuronium (in words) [6]: efficiently blocked
Dose (ED50) producing 50% reversal of steady-state neuromuscular block [7]: 964 (3) μmol.kg^−1
Dose (ED50) producing 50% reversal of steady-state neuromuscular block [8]: 227 (2) μmol.kg^−1
Dose (ED50) producing 50% reversal of steady-state neuromuscular block [9]: 431 (2) μmol.kg^−1
Dose (ED50) producing 50% reversal of steady-state neuromuscular block [10]: 999 (2) μmol.kg^−1

γ-cyclodextrin-phospate sodium salt (DS = 3) [Compound 11]
Dose (ED50) producing 50% reversal of steady-state neuromuscular block [1]: 197 (2) μmol.kg^−1
Dose (ED50) producing 50% reversal of steady-state neuromuscular block [2]: 113 (2) μmol.kg^−1
Dose (ED50) producing 50% reversal of steady-state neuromuscular block [3]: 204 (2) μmol.kg^−1
Dose (ED50) producing 50% reversal of steady-state neuromuscular block [4]: 64 (3) μmol.kg^−1
Dose (ED50) producing 50% reversal of steady-state neuromuscular block [5]: 67 (3) μmol.kg^−1
Mouse hemidiaphragm: maximum reversal (%) [6]: 34%
concentration of chemical chelator at maximum reversal [6]: 360 µM
Dose (ED50) producing 50% reversal of steady-state neuromuscular block [7]: 292 (2) μmol.kg^−1
Dose (ED50) producing 50% reversal of steady-state neuromuscular block [8]: 80 (3) μmol.kg^−1
Dose (ED50) producing 50% reversal of steady-state neuromuscular block [9]: 160 (2) μmol.kg^−1
Dose (ED50) producing 50% reversal of steady-state neuromuscular block [10]: 160 (2) μmol.kg^−1
